Among the test systems are BT-549; DU-145; HCC 2998; HCT-116; HCT-15; HOP-92; KM12; MDA-MB-435; MDA-N; OVCAR-4; RPMI-8226; SF-268; SF-295; SK-MEL-5; SNB-75; UACC-257; SK-MEL-2; T47D; UACC-62.
Holding throughout (test): DTP human tumour cell line panel, 48 h

For orientation: GI50 means the concentration giving 50% growth inhibition.

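All cell lines were grown in 96-well plates and treated with compound for 48 hours. GI50 marks 50% less growth.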 Activity calls are given as the source filed them. Cut-off read from the data, not from the text of the source: active = GI50 up to about 1.1 µM and inactive = higher.

With `O=C(NCCc1ccccc1)c1c(O)nc2ccccc2c1O`, the GI50 with BT-549 is > 100 µM (inactive); with DU-145, > 100 µM (inactive); in the test with HCC 2998 it was > 100 µM (inactive); in the test on HCT-116 it was > 100 µM (inactive); with HCT-15, greater than 100 µM; in the test on HOP-92 it was > 100 µM (inactive). The GI50 with KM12, in the test with MDA-MB-435, in the test with MDA-N, in the test on OVCAR-4, in the test on RPMI-8226 and with SF-268 was > 100 µM (inactive) in each case. Besides, the GI50 in the test with SF-295, in the test with SK-MEL-5, in the test with SNB-75 and with UACC-257 was > 100 µM (inactive) each time.
For `COC(=O)C(Cc1ccccc1)NC(=O)C(CCC(=O)OCc1ccccc1)NC(=O)OC(C)(C)C` (stereo not drawn), the GI50 in the test on BT-549 was > 100 µM (inactive); in the test with DU-145 it was > 100 µM (inactive); in the test on HCC 2998 it was 31 µM (inactive); with HCT-116 it was 44.4 µM (inactive); in the test with HCT-15, 85.5 µM; in the test on HOP-92, > 100 µM (inactive). In addition, the GI50 with KM12 was 83.9 µM (inactive); with MDA-MB-435, > 100 µM (inactive); in the test with OVCAR-4, 64 µM (inactive); in the test on RPMI-8226, 25 µM (inactive); with SF-268, > 100 µM (inactive); in the test with SF-295, > 100 µM (inactive). Besides, the GI50 in the test on SK-MEL-2, with SK-MEL-5, in the test with SNB-75, in the test with T47D, in the test with UACC-257 and with UACC-62 was > 100 µM (inactive) each time.
With `C/C(=N\NC(=O)CC#N)C(CN1CCCCC1)C(c1ccccc1)c1c(O)c2ccccc2oc1=O` (stereo not drawn), the GI50 with BT-549 is 54.2 µM (inactive); with DU-145, > 100 µM (inactive); in the test with HCC 2998 it was 55.7 µM (inactive); in the test on HCT-116 it was 62.2 µM (inactive); with HCT-15, 45.5 µM; in the test on HOP-92, 18.5 µM (inactive). Moreover, the GI50 was 39.5 µM (inactive) with KM12; 53.2 µM (inactive) in the test on MDA-MB-435; 49.8 µM (inactive) with MDA-N; 52.1 µM (inactive) with OVCAR-4; 33.7 µM (inactive) in the test with RPMI-8226; > 100 µM (inactive) with SF-268. In addition, the GI50 with SK-MEL-2 was 35.7 µM (inactive); in the test on SK-MEL-5, 51.2 µM (inactive); in the test with SNB-75, 67.5 µM (inactive); in the test with UACC-257 it was 37.2 µM (inactive); in the test on UACC-62, 45.4 µM (inactive).
Consider `CSCCCNC(=O)c1csc(-c2csc(CCNC(=O)CNC(=O)CNC(=O)OC(C)(C)C)n2)n1`, for which the GI50 in the test with BT-549 was > 100 µM (inactive); with DU-145, > 100 µM (inactive); with HCC 2998, > 100 µM (inactive); in the test on HCT-116 it was > 100 µM (inactive); with HCT-15, greater than 100 µM; in the test on HOP-92, > 100 µM (inactive). For the same molecule, the GI50 with KM12, in the test on MDA-MB-435, in the test on MDA-N, in the test with OVCAR-4, in the test with SF-268 and with SF-295 was > 100 µM (inactive) each time. Further, the GI50 is > 100 µM (inactive) in the test with SK-MEL-2; > 100 µM (inactive) in the test with SK-MEL-5; 37.2 µM (inactive) in the test with SNB-75; > 100 µM (inactive) in the test with UACC-257; > 100 µM (inactive) in the test on UACC-62.

The values above are taken from ChEMBL document CHEMBL1201862, “PubChem BioAssay data set” (2004).
